Our source for the IC50 values is US9932314B2, “Pyrazole compounds and their use as T-type calcium channel blockers” (IDORSIA PHARMACEUTICALS LTD, priority 2015, dated 2018).

The target in this test is T1, voltage-dependent T-type calcium channel subunit alpha-1G (Cav3.2) (Homo sapiens, UniProt O95180).
T1 construct: expressed in transfected cells; host or cells: HEK293
T1 sequence (O95180 whole entry): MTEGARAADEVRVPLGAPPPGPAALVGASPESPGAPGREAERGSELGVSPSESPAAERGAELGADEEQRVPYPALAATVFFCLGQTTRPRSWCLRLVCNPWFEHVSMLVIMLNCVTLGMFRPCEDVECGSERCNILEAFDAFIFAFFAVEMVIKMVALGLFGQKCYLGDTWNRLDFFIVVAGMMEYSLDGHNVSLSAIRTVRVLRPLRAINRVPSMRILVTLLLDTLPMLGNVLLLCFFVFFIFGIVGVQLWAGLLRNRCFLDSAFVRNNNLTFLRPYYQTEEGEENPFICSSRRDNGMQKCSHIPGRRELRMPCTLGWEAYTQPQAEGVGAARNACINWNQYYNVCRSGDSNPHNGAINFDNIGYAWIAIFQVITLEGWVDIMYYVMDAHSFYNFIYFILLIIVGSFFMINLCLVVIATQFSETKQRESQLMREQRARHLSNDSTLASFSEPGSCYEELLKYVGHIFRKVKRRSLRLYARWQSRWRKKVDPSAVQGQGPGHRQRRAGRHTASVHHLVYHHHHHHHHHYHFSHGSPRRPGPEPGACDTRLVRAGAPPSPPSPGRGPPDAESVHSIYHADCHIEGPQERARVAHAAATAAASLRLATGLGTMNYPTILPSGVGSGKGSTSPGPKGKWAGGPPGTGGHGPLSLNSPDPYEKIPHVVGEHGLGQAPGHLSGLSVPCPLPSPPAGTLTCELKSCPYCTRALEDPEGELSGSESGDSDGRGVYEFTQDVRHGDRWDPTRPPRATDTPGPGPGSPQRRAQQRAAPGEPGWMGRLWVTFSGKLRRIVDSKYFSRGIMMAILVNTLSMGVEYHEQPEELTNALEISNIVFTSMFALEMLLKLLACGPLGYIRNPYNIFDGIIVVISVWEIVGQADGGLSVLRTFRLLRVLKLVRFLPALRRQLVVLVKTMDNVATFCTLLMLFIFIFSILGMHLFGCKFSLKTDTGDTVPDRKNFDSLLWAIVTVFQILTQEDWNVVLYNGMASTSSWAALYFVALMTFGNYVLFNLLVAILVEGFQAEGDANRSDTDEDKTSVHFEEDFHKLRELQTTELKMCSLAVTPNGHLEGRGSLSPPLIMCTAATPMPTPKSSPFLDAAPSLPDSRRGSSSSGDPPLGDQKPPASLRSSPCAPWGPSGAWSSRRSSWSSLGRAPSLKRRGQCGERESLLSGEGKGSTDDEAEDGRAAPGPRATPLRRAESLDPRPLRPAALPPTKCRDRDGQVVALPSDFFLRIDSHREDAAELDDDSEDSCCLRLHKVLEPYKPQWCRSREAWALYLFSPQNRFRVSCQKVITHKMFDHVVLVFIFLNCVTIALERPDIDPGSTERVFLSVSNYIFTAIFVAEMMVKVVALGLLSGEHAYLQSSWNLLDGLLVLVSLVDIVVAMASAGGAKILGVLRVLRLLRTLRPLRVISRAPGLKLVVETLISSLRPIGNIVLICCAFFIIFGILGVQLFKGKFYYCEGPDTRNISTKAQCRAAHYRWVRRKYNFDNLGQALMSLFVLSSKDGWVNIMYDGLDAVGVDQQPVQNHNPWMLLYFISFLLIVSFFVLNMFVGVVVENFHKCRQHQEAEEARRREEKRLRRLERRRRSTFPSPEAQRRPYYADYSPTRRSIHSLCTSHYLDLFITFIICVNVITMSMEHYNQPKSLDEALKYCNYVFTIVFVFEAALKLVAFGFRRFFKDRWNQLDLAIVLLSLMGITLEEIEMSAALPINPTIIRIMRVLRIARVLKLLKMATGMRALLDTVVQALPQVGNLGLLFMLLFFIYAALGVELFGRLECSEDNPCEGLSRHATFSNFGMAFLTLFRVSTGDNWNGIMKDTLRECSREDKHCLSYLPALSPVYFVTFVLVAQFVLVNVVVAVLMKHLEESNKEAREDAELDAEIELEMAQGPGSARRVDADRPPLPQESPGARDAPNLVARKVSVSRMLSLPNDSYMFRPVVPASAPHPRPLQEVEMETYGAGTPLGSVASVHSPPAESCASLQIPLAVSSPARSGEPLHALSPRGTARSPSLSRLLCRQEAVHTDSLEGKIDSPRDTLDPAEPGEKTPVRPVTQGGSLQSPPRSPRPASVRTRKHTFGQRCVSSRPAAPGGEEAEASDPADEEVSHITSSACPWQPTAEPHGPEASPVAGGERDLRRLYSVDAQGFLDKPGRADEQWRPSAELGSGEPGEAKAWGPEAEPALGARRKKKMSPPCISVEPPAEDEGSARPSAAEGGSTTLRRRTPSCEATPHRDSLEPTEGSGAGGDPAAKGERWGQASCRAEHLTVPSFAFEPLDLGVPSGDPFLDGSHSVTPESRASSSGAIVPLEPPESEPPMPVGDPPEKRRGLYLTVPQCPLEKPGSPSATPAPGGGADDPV
The test is described as follows: FLIPR calcium flux assay, HEK293 cells recombinantly expressing Cav3.2. The test is classed as cell-based. To be noted: Cav3.2-channel, Fluo-4-AM, 3 min incubation, stimulation with 10 mM CaCl2. The essentials: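 Calcium influx was triggered by adding CaCl2 to 10 mM final, 3 min after compounds in tetraethylammonium-based buffer, pH 7.2, reached Fluo-4-AM-loaded recombinant HEK293 cells. The integrated kinetic fluorescence signal per concentration gave concentration-response curves by non-linear sigmoidal regression.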
As for `N#Cc1ccc(Cn2ccc(NC(=O)Cc3ccc(C4(C(F)(F)F)CC4)cc3)n2)cc1F` [Example 265, N-[1-(4-Cyano-3-fluoro-benzyl)-1H-pyrazol-3-yl]-2-[4-(1-trifluoromethyl-cyclopropyl)-phenyl]-acetamide], the IC50 is 15 nM.

Take `CC(C)c1ccc(CC(=O)Nc2ccn(Cc3ccc(C#N)c(F)c3)n2)cc1` [Example 266, N-[1-(4-Cyano-3-fluoro-benzyl)-1H-pyrazol-3-yl]-2-(4-isopropyl-phenyl)-acetamide]: the IC50 is 6.6 nM. As for `N#Cc1cc(Cn2ccc(NC(=O)Cc3ccc(OCC4(F)COC4)cc3)n2)ccc1F` [Example 267, N-[1-(3-Cyano-4-fluoro-benzyl)-1H-pyrazol-3-yl]-2-[4-(3-fluoro-oxetan-3-ylmethoxy)-phenyl]-acetamide], the figure is 90 nM; as for `Cn1ncc2cc(CC(=O)Nc3ccn(Cc4ccc(F)c(C#N)c4)n3)ccc21` [Example 268, N-[1-(3-Cyano-4-fluoro-benzyl)-1H-pyrazol-3-yl]-2-(1-methyl-1H-indazol-5-yl)-acetamide], 35 nM. As for `N#Cc1cc(Cn2ccc(NC(=O)Cc3ccc(OC4COC4)cc3)n2)ccc1F` [Example 269, N-[1-(3-Cyano-4-fluoro-benzyl)-1H-pyrazol-3-yl]-2-[4-(oxetan-3-yloxy)-phenyl]-acetamide], the figure is 162 nM; as for `N#Cc1cc(Cn2ccc(NC(=O)Cc3ccc(C4(F)COC4)cc3)n2)ccc1F` [Example 270, N-[1-(3-Cyano-4-fluoro-benzyl)-1H-pyrazol-3-yl]-2-[4-(3-fluoro-oxetan-3-yl)-phenyl]-acetamide], 51 nM. As for `CC(C)(C)c1ccc(CC(=O)Nc2ccn(Cc3ccc(C#N)cc3)n2)cc1` [Example 271, 2-(4-tert-Butyl-phenyl)-N-[1-(4-cyano-benzyl)-1H-pyrazol-3-yl]-acetamide], the figure is 3.4 nM. For the molecule `N#Cc1ccc(Cn2ccc(NC(=O)Cc3ccc(OC4CC(F)(F)C4)cc3)n2)cc1` [Example 273, N-[1-(4-Cyano-benzyl)-1H-pyrazol-3-yl]-2-[4-(3,3-difluoro-cyclobutoxy)-phenyl]-acetamide], the IC50 was determined as 35 nM. As for `N#Cc1ccc(Cn2ccc(NC(=O)Cc3ccc(OC4CC(F)(F)C4)cc3)n2)nc1` [Example 274, N-[1-(5-Cyano-pyridin-2-ylmethyl)-1H-pyrazol-3-yl]-2-[4-(3,3-difluoro-cyclobutoxy)-phenyl]-acetamide], the figure is 133 nM. As for `N#Cc1ccc(Cn2ccc(NC(=O)Cc3ccc(N4CCCC4)nc3)n2)cc1F` [Example 275, N-[1-(4-Cyano-3-fluoro-benzyl)-1H-pyrazol-3-yl]-2-(6-pyrrolidin-1-yl-pyridin-3-yl)-acetamide], the figure is 14 nM; as for `N#Cc1ccc(Cn2ccc(NC(=O)Cc3ccc(N4CCCC4)nc3)n2)nc1` [Example 276, N-[1-(5-Cyano-pyridin-2-ylmethyl)-1H-pyrazol-3-yl]-2-(6-pyrrolidin-1-yl-pyridin-3-yl)-acetamide], 188 nM; as for `N#Cc1ccc(Cn2ccc(NC(=O)Cc3ccc(C4(C(F)(F)F)CC4)cc3)n2)cc1` [Example 277, N-[1-(4-Cyano-benzyl)-1H-pyrazol-3-yl]-2-[4-(1-trifluoromethyl-cyclopropyl)-phenyl]-acetamide], 15 nM. As for `N#Cc1cc(Cn2ccc(NC(=O)Cc3ccc(OCC4COC4)cc3)n2)ccc1F` [Example 279, N-[1-(3-Cyano-4-fluoro-benzyl)-1H-pyrazol-3-yl]-2-[4-(oxetan-3-ylmethoxy)-phenyl]-acetamide], the figure is 275 nM; as for `CC1(COc2ccc(CC(=O)Nc3ccn(Cc4ccc(F)c(C#N)c4)n3)cc2)COC1` [Example 280, N-[1-(3-Cyano-4-fluoro-benzyl)-1H-pyrazol-3-yl]-2-[4-(3-methyl-oxetan-3-ylmethoxy)-phenyl]-acetamide], 138 nM.

For the molecule `N#Cc1cc(Cn2ccc(NC(=O)Cc3ccc(OC4CC(F)(F)C4)cc3)n2)ccc1F` [Example 281, N-[1-(3-Cyano-4-fluoro-benzyl)-1H-pyrazol-3-yl]-2-[4-(3,3-difluoro-cyclobutoxy)-phenyl]-acetamide], the IC50 was 21 nM. As for `CC(C)c1ccc(CC(=O)Nc2ccn(Cc3ccc(F)c(C#N)c3)n2)cc1` [Example 282, N-[1-(3-Cyano-4-fluoro-benzyl)-1H-pyrazol-3-yl]-2-(4-isopropyl-phenyl)-acetamide], the figure is 12 nM. As for `CC(C)(C)c1ccc(CC(=O)Nc2ccn(Cc3ccc(F)c(C#N)c3)n2)cc1` [Example 283, 2-(4-tert-Butyl-phenyl)-N-[1-(3-cyano-4-fluoro-benzyl)-1H-pyrazol-3-yl]-acetamide], the 50% inhibitory concentration (IC50) was found to be 9.5 nM. As for `CC1(COc2ccc(CC(=O)Nc3ccn(Cc4ccc(C#N)cn4)n3)cc2)COC1` [Example 284, N-[1-(5-Cyano-pyridin-2-ylmethyl)-1H-pyrazol-3-yl]-2-[4-(3-methyl-oxetan-3-ylmethoxy)-phenyl]-acetamide], the figure is 3070 nM. As for `CC1(COc2ccc(CC(=O)Nc3ccn(Cc4ccc(C#N)cc4)n3)cc2)COC1` [Example 285, N-[1-(4-Cyano-benzyl)-1H-pyrazol-3-yl]-2-[4-(3-methyl-oxetan-3-ylmethoxy)-phenyl]-acetamide], the figure is 208 nM; as for `N#Cc1ccc(Cn2ccc(NC(=O)Cc3ccc(OCC4COC4)cc3)n2)cc1` [Example 286, N-[1-(4-Cyano-benzyl)-1H-pyrazol-3-yl]-2-[4-(oxetan-3-ylmethoxy)-phenyl]-acetamide], 393 nM. As for `N#Cc1ccc(Cn2ccc(NC(=O)Cc3ccc(OCC4COC4)cc3)n2)nc1` [Example 287, N-[1-(5-Cyano-pyridin-2-ylmethyl)-1H-pyrazol-3-yl]-2-[4-(oxetan-3-ylmethoxy)-phenyl]-acetamide], the figure is 9480 nM. As to `N#Cc1ccc(Cn2ccc(NC(=O)Cc3ccc(C4CC(F)(F)C4)cc3)n2)cc1F` [Example 288, N-[1-(4-Cyano-3-fluoro-benzyl)-1H-pyrazol-3-yl]-2-[4-(3,3-difluoro-cyclobutyl)-phenyl]-acetamide], the IC50 stood at 4.7 nM. `N#Cc1ccc(Cn2ccc(NC(=O)Cc3ccc(OCC4CC(F)(F)C4)cc3)n2)cc1F` [Example 289, N-[1-(4-Cyano-3-fluoro-benzyl)-1H-pyrazol-3-yl]-2-[4-(3,3-difluoro-cyclobutylmethoxy)-phenyl]-acetamide]: the concentration for half-maximal inhibition (IC50) came out at 23 nM. As for `CC1(COc2ccc(CC(=O)Nc3ccn(Cc4ccc(C#N)c(F)c4)n3)cc2)CC(F)(F)C1` [Example 290, N-[1-(4-Cyano-3-fluoro-benzyl)-1H-pyrazol-3-yl]-2-[4-(3,3-difluoro-1-methyl-cyclobutylmethoxy)-phenyl]-acetamide], the figure is 39 nM. As for `Cn1ncc2ccc(CC(=O)Nc3ccn(Cc4ccc(C#N)c(F)c4)n3)cc21` [Example 291, N-[1-(4-Cyano-3-fluoro-benzyl)-1H-pyrazol-3-yl]-2-(1-methyl-1H-indazol-6-yl)-acetamide], the figure is 80 nM.

Turning to `Cn1ccc2cc(CC(=O)Nc3ccn(Cc4ccc(C#N)c(F)c4)n3)ccc21` [Example 292, N-[1-(4-Cyano-3-fluoro-benzyl)-1H-pyrazol-3-yl]-2-(1-methyl-1H-indol-5-yl)-acetamide], the IC50 was 6.5 nM. As for `Cn1ccc2ccc(CC(=O)Nc3ccn(Cc4ccc(C#N)c(F)c4)n3)cc21` [Example 293, N-[1-(4-Cyano-3-fluoro-benzyl)-1H-pyrazol-3-yl]-2-(1-methyl-1H-indol-6-yl)-acetamide], the figure is 6.6 nM; as for `N#Cc1ccc(Cn2ccc(NC(=O)Cc3ccc(N4CCC(F)(F)C4)nc3)n2)cc1F` [Example 294, N-[1-(4-Cyano-3-fluoro-benzyl)-1H-pyrazol-3-yl]-2-[6-(3,3-difluoro-pyrrolidin-1-yl)-pyridin-3-yl]-acetamide], 22 nM; as for `Cn1ncc2ccc(CC(=O)Nc3ccn(Cc4ccc(C#N)cc4)n3)cc21` [Example 295, N-[1-(4-Cyano-benzyl)-1H-pyrazol-3-yl]-2-(1-methyl-1H-indazol-6-yl)-acetamide], 308 nM. As for `Cn1ccc2cc(CC(=O)Nc3ccn(Cc4ccc(C#N)cc4)n3)ccc21` [Example 296, N-[1-(4-Cyano-benzyl)-1H-pyrazol-3-yl]-2-(1-methyl-1H-indol-5-yl)-acetamide], the figure is 17 nM; as for `Cn1ccc2ccc(CC(=O)Nc3ccn(Cc4ccc(C#N)cc4)n3)cc21` [Example 297, N-[1-(4-Cyano-benzyl)-1H-pyrazol-3-yl]-2-(1-methyl-1H-indol-6-yl)-acetamide], 20 nM. As to `CC1(COc2ccc(CC(=O)Nc3ccn(Cc4ccc(C#N)cc4)n3)cc2)CC(F)(F)C1` [Example 298, N-[1-(4-Cyano-benzyl)-1H-pyrazol-3-yl]-2-[4-(3,3-difluoro-1-methyl-cyclobutylmethoxy)-phenyl]-acetamide], the IC50 turned out to be 43 nM. As for `N#Cc1ccc(Cn2ccc(NC(=O)Cc3ccc(OCC4CC(F)(F)C4)cc3)n2)cc1` [Example 299, N-[1-(4-Cyano-benzyl)-1H-pyrazol-3-yl]-2-[4-(3,3-difluoro-cyclobutylmethoxy)-phenyl]-acetamide], the figure is 37 nM.

In the case of `N#Cc1ccc(Cn2ccc(NC(=O)Cc3ccc(C4CC(F)(F)C4)cc3)n2)cc1` [Example 300, N-[1-(4-Cyano-benzyl)-1H-pyrazol-3-yl]-2-[4-(3,3-difluoro-cyclobutyl)-phenyl]-acetamide], the IC50 was determined as 7.5 nM. As for `Cn1ccc2cc(CC(=O)Nc3ccn(Cc4ccc(C#N)cn4)n3)ccc21` [Example 301, N-[1-(5-Cyano-pyridin-2-ylmethyl)-1H-pyrazol-3-yl]-2-(1-methyl-1H-indol-5-yl)-acetamide], the figure is 71 nM; as for `Cn1ccc2ccc(CC(=O)Nc3ccn(Cc4ccc(C#N)cn4)n3)cc21` [Example 302, N-[1-(5-Cyano-pyridin-2-ylmethyl)-1H-pyrazol-3-yl]-2-(1-methyl-1H-indol-6-yl)-acetamide], 39 nM.
